Reference: the NIST ThermoML archive (doi:10.1016/j.fluid.2018.01.019)
± gives the expanded uncertainty stated by the source.

Legend:
[1] = xn = mol fraction of the nth substance listed; settings: 313.15 K; 101 kPa; Liquid; Vibrating tube method; x1 = 0.333
[2] = refractive index (Na D-line) (dimensionless); xn = mol fraction of the nth substance listed; settings: 313.15 K; 101 kPa; Liquid; Standard Abbe refractometry; x1 = 0.333

Question: Which mass density [1] does the source give for C[N+](C)(C)C.[Cl-] [tetramethylammonium chloride] + OCCO here?
Answer: 1072.19 ± 0.19 kg/m3

Question: What about the refractive index [2] of the same molecule?
Answer: 1.45599 ± 0.00033
